How the values were obtained:
Type in all cases: in vivo
[1] = system: redroot pigweed (Amaranthus retroflexus, AMARE); experiment: Pre-emerge test, greenhouse herbicide activity screening; details: rated 14 days after application, 0 = no damage, 100 = complete death
Method in brief: (§1)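 Sandy loam pots; pre-emerge: sown 1 d pre-spray, surface-watered after, then bottom-watered. Post-emerge: sown 8–21 d before, 2–3 leaf stage, + 0.25% v/v NIS, bottom-watered. Acetone, 187 l/ha track spray, 15–1000 g ai/ha. 0–100 injury score, day 14.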

[2] = system: barnyardgrass (Echinochloa crus-galli, ECHCG); experiment: Post-emerge test, greenhouse herbicide activity screening; details: post-emerge, 14 days after application, rating scale 0-100
Method in brief: as §1

[3] = system: sicklepod (Cassia obtusifolia, CASOB); experiment: as above; details: post-emerge, 14 days after application, rating scale 0-100
Method in brief: as §1

[4] = system: redroot pigweed (Amaranthus retroflexus, AMARE); experiment: as above; details: post-emerge, 14 days after application, rating scale 0-100
Method in brief: as §1

[5] = system: johnsongrass (Sorghum halepense, SORHA); experiment: as above; details: post-emerge, 14 days after application, rating scale 0-100
Method in brief: as §1

[6] = system: green foxtail (Setaria viridis, SETVI); experiment: as above; details: post-emerge, 14 days after application, rating scale 0-100
Method in brief: as §1

[7] = system: lambsquarters (Chenopodium album, CHEAL); experiment: as above; details: post-emerge, 14 days after application, rating scale 0-100
Method in brief: as §1

[8] = system: common ragweed (Ambrosia artemisizfolia L., AMBEL); experiment: as above; details: post-emerge, 14 days after application, rating scale 0-100
Method in brief: as §1

[9] = system: velvetleaf (Abutilon theophrasti, ABUTH); experiment: as above; details: post-emerge, 14 days after application, rating scale 0-100
Method in brief: as §1

[10] = system: ivyleaf morningglory (Ipomoea hederacea, IPOHE); experiment: as above; details: post-emerge, 14 days after application, rating scale 0-100
Method in brief: as §1

[11] = system: large crabgrass (Digitaria sanguinalis, DIGSA); experiment: as above; details: post-emerge, 14 days after application, rating scale 0-100
Method in brief: as §1

[12] = system: barnyardgrass (Echinochloa crus-galli, ECHCG); experiment: Pre-emerge test, greenhouse herbicide activity screening; details: rated 14 days after application, 0 = no damage, 100 = complete death
Method in brief: (§2)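 Plants grown in 10 cm pots of sandy loam mix received acetone-dissolved compounds through a moving flat-fan nozzle. Doses ranged from 15 to 1000 g ai/ha. Pre-emerge pots were seeded one day earlier, post-emerge pots 8–21 days earlier. Fourteen days on, each pot was graded 0–100 for damage.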

[13] = system: sicklepod (Cassia obtusifolia, CASOB); experiment: as above; details: rated 14 days after application, 0 = no damage, 100 = complete death
Method in brief: as §2

[14] = system: johnsongrass (Sorghum halepense, SORHA); experiment: as above; details: rated 14 days after application, 0 = no damage, 100 = complete death
Method in brief: as §2

[15] = system: green foxtail (Setaria viridis, SETVI); experiment: as above; details: rated 14 days after application, 0 = no damage, 100 = complete death
Method in brief: as §2

[16] = system: lambsquarters (Chenopodium album, CHEAL); experiment: as above; details: rated 14 days after application, 0 = no damage, 100 = complete death
Method in brief: as §2

[17] = system: common ragweed (Ambrosia artemisizfolia L., AMBEL); experiment: as above; details: rated 14 days after application, 0 = no damage, 100 = complete death
Method in brief: as §2

[18] = system: velvetleaf (Abutilon theophrasti, ABUTH); experiment: as above; details: rated 14 days after application, 0 = no damage, 100 = complete death
Method in brief: as §2

[19] = system: ivyleaf morningglory (Ipomoea hederacea, IPOHE); experiment: as above; details: rated 14 days after application, 0 = no damage, 100 = complete death
Method in brief: as §2

[20] = system: large crabgrass (Digitaria sanguinalis, DIGSA); experiment: as above; details: rated 14 days after application, 0 = no damage, 100 = complete death
Method in brief: as §2

[21] = system: upland rice (Oryza sp., var. Tebonnet, RICE); experiment: Post-emerge test, crop safety; details: post-emerge, 14 days after application, rating scale 0-100
Method in brief: (§3)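 Each test used a mechanized track sprayer delivering 187 l/ha of acetone solution at 15–1000 g ai/ha. Post-emerge foliage at 2–3 leaves was treated with added 0.25% v/v non-ionic surfactant and bottom-watered only. Injury was assessed on day 14, where 100 means total kill.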

[22] = system: field corn (Zea mays L., var. Dekalb 535, CORN); experiment: Post-emerge test, crop safety; details: post-emerge, 14 days after application, rating scale 0-100
Method in brief: as §3

[23] = system: upland rice (Oryza sp., var. Tebonnet, RICE); experiment: Pre-emerge test, crop safety; details: rated 14 days after application, 0 = no damage, 100 = complete death
Method in brief: (§4)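 Compounds in acetone were track-sprayed at 15-1000 g ai/ha (187 l/ha) on sandy loam pots: pre-emerge one day after seeding, post-emerge at 2-3 leaf stage with 0.25% v/v non-ionic surfactant. Phytotoxicity was rated 14 days later on a 0 (no damage) to 100 (complete death) scale.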

[24] = system: field corn (Zea mays L., var. Dekalb 535, CORN); experiment: Pre-emerge test, crop safety; details: rated 14 days after application, 0 = no damage, 100 = complete death
Method in brief: as §4

## COc1c(Cl)cc(F)c(-n2c(=O)cc(C(F)(F)F)n(C)c2=O)c1NC(=O)c1cc(F)cc(F)c1 [2-50]
[1]; 63 g ai/ha
  Pre-emerge Herbicidal Activity, phytotoxicity rating (0-100), AMARE: 100
[1]; 250 g ai/ha
  Pre-emerge Herbicidal Activity, phytotoxicity rating (0-100), AMARE: 100
[2]; 63 g ai/ha
  phytotoxicity rating ECHCG: 0
[2]; 250 g ai/ha
  phytotoxicity rating ECHCG: 30
[3]; 63 g ai/ha
  phytotoxicity rating CASOB: 80
[3]; 250 g ai/ha
  phytotoxicity rating CASOB: 90
[4]; 63 g ai/ha
  phytotoxicity rating AMARE: 90
[4]; 250 g ai/ha
  phytotoxicity rating AMARE: 100
[5]; 63 g ai/ha
  phytotoxicity rating SORHA: 0
[5]; 250 g ai/ha
  phytotoxicity rating SORHA: 40
[6]; 63 g ai/ha
  phytotoxicity rating SETVI: 40
[6]; 250 g ai/ha
  phytotoxicity rating SETVI: 60
[7]; 63 g ai/ha
  phytotoxicity rating CHEAL: 70
[7]; 250 g ai/ha
  phytotoxicity rating CHEAL: 90
[8]; 63 g ai/ha
  phytotoxicity rating AMBEL: 40
[8]; 250 g ai/ha
  phytotoxicity rating AMBEL: 65
[9]; 63 g ai/ha
  phytotoxicity rating ABUTH: 100
[9]; 250 g ai/ha
  phytotoxicity rating ABUTH: 100
[10]; 63 g ai/ha
  phytotoxicity rating IPOHE: 100
[10]; 250 g ai/ha
  phytotoxicity rating IPOHE: 100
[11]; 63 g ai/ha
  phytotoxicity rating DIGSA: 10
[11]; 250 g ai/ha
  phytotoxicity rating DIGSA: 30
[12]; 63 g ai/ha
  Pre-emerge Herbicidal Activity, phytotoxicity rating (0-100), ECHCG: 10
[12]; 250 g ai/ha
  Pre-emerge Herbicidal Activity, phytotoxicity rating (0-100), ECHCG: 100
[13]; 63 g ai/ha
  Pre-emerge Herbicidal Activity, phytotoxicity rating (0-100), CASOB: 60
[13]; 250 g ai/ha
  Pre-emerge Herbicidal Activity, phytotoxicity rating (0-100), CASOB: 100
[14]; 63 g ai/ha
  Pre-emerge Herbicidal Activity, phytotoxicity rating (0-100), SORHA: 30
[14]; 250 g ai/ha
  Pre-emerge Herbicidal Activity, phytotoxicity rating (0-100), SORHA: 80
[15]; 63 g ai/ha
  Pre-emerge Herbicidal Activity, phytotoxicity rating (0-100), SETVI: 90
[15]; 250 g ai/ha
  Pre-emerge Herbicidal Activity, phytotoxicity rating (0-100), SETVI: 100
[16]; 63 g ai/ha
  Pre-emerge Herbicidal Activity, phytotoxicity rating (0-100), CHEAL: 100
[16]; 250 g ai/ha
  Pre-emerge Herbicidal Activity, phytotoxicity rating (0-100), CHEAL: 100
[17]; 63 g ai/ha
  Pre-emerge Herbicidal Activity, phytotoxicity rating (0-100), AMBEL: 60
[17]; 250 g ai/ha
  Pre-emerge Herbicidal Activity, phytotoxicity rating (0-100), AMBEL: 100
[18]; 63 g ai/ha
  Pre-emerge Herbicidal Activity, phytotoxicity rating (0-100), ABUTH: 100
[18]; 250 g ai/ha
  Pre-emerge Herbicidal Activity, phytotoxicity rating (0-100), ABUTH: 100
[19]; 63 g ai/ha
  Pre-emerge Herbicidal Activity, phytotoxicity rating (0-100), IPOHE: 70
[19]; 250 g ai/ha
  Pre-emerge Herbicidal Activity, phytotoxicity rating (0-100), IPOHE: 100
[20]; 63 g ai/ha
  Pre-emerge Herbicidal Activity, phytotoxicity rating (0-100), DIGSA: 70
[20]; 250 g ai/ha
  Pre-emerge Herbicidal Activity, phytotoxicity rating (0-100), DIGSA: 100
[21]; 63 g ai/ha
  phytotoxicity rating RICE: 60
[21]; 250 g ai/ha
  phytotoxicity rating RICE: 65
[22]; 63 g ai/ha
  phytotoxicity rating CORN: 10
[22]; 250 g ai/ha
  phytotoxicity rating CORN: 70
[23]; 63 g ai/ha
  Pre-emerge phytotoxicity rating (0-100), crop damage, RICE: 25
[23]; 250 g ai/ha
  Pre-emerge phytotoxicity rating (0-100), crop damage, RICE: 90
[24]; 63 g ai/ha
  Pre-emerge phytotoxicity rating (0-100), crop damage, CORN: 5
[24]; 250 g ai/ha
  Pre-emerge phytotoxicity rating (0-100), crop damage, CORN: 70

## COc1c(Cl)cc(F)c(-n2c(=O)cc(C(F)(F)F)n(C)c2=O)c1NC(=O)c1c(F)c(F)c(F)c(F)c1F [2-52]
[1]; 63 g ai/ha
  Pre-emerge Herbicidal Activity, phytotoxicity rating (0-100), AMARE: 100
[2]; 63 g ai/ha
  phytotoxicity rating ECHCG: 0
[3]; 63 g ai/ha
  phytotoxicity rating CASOB: 0
[4]; 63 g ai/ha
  phytotoxicity rating AMARE: 30
[5]; 63 g ai/ha
  phytotoxicity rating SORHA: 0
[6]; 63 g ai/ha
  phytotoxicity rating SETVI: 0
[7]; 63 g ai/ha
  phytotoxicity rating CHEAL: 10
[8]; 63 g ai/ha
  phytotoxicity rating AMBEL: 20
[9]; 63 g ai/ha
  phytotoxicity rating ABUTH: 30
[10]; 63 g ai/ha
  phytotoxicity rating IPOHE: 10
[11]; 63 g ai/ha
  phytotoxicity rating DIGSA: 0
[12]; 63 g ai/ha
  Pre-emerge Herbicidal Activity, phytotoxicity rating (0-100), ECHCG: 0
[13]; 63 g ai/ha
  Pre-emerge Herbicidal Activity, phytotoxicity rating (0-100), CASOB: 0
[14]; 63 g ai/ha
  Pre-emerge Herbicidal Activity, phytotoxicity rating (0-100), SORHA: 0
[15]; 63 g ai/ha
  Pre-emerge Herbicidal Activity, phytotoxicity rating (0-100), SETVI: 40
[16]; 63 g ai/ha
  Pre-emerge Herbicidal Activity, phytotoxicity rating (0-100), CHEAL: 50
[17]; 63 g ai/ha
  Pre-emerge Herbicidal Activity, phytotoxicity rating (0-100), AMBEL: 0
[18]; 63 g ai/ha
  Pre-emerge Herbicidal Activity, phytotoxicity rating (0-100), ABUTH: 10
[19]; 63 g ai/ha
  Pre-emerge Herbicidal Activity, phytotoxicity rating (0-100), IPOHE: 0
[20]; 63 g ai/ha
  Pre-emerge Herbicidal Activity, phytotoxicity rating (0-100), DIGSA: 0
[21]; 63 g ai/ha
  phytotoxicity rating RICE: 0
[22]; 63 g ai/ha
  phytotoxicity rating CORN: 0
[23]; 63 g ai/ha
  Pre-emerge phytotoxicity rating (0-100), crop damage, RICE: 0
[24]; 63 g ai/ha
  Pre-emerge phytotoxicity rating (0-100), crop damage, CORN: 0

— US6355799B1, “Substituted benzene compounds, process for their preparation, and herbicidal and defoliant compositions containing them” (ISK Americas Incorporated, priority 1997, dated 2002)
